According to US5935998A, “Use of all allylamine derivatives such as terbinafine, in the manufacture of a medicament for the treatment of helicobacter pylori infection or associated diseases” (Novartis AG, priority 1995, dated 1999):
Converted amounts (≈) assume the structure as drawn. Where two headings read alike, the source gives them in different places.

Experiments:
[1] = in vivo; conditions: mouse, acute
[2] = system: Helicobacter pylori; assay: MIC (minimum inhibitory concentration) determination using various clinical isolates of H.pylori; assay type: cell-based; conditions: Mueller-Hinton agar with 7% defibrinated horse blood, pH 7.2, 72 hours, 37° C., 5% CO2
Procedure: The activity of the compounds of formula I against Helicobacter pylori can be verified e.g. by determination of the MIC (minimum inhibitory concentration) in the following test method using various clinical isolates of H.pylori: Clinical isolates of H.pylori are stored at -70° C. in Brucella broth with 20% glycerol. All isolates are subcultured on fresh blood agar Blood agar base No. 2, Unipath, with 5% defibrinated horse blood) and confirmed as Helicobacter pylori by Gram shin, catalase, oxidase and rapid-urease tests. Initial incubation is carried out microaerobically in a variable-atmosphere incubator (6% O2, 10% CO2, 3% H2, 81% N2) at 37° C. Subcultures and MIC tests are carried out in humidified air with 5% CO2 at 37° C. Test compounds are incorporated into Mueller-Hinton agar (Unipath) with 7% defibrinated horse blood at pH 7.2. After growth for 72 hours on blood agar H.pylori suspensions are made in Brucella broth (Unipath) equivalent to McFarland standard No. 3. This represents 10^8 cfu/ml H.pylori. A multipoint inoculator will deliver 1 μl per spot (approximately 10^5 cfu). The type strain NCTC 11637 is used as a control in each run. […] All tests are carried out in triplicate.

| SMILES | LD50 ([1]; ip, i.p., read-out: LD50 i.p.) [mg/kg] | LD50 ([1]; po, p.o., read-out: LD50 p.o.) [mg/kg] | MIC [2] [µg/mL] |
| --- | --- | --- | --- |
| CN(C/C=C/C#CC(C)(C)C)Cc1cccc2ccccc12 | 790 | > 1000 |  |
| C(=C\c1ccccc1)/CN1CCCC[C@@H]1c1cccc2ccccc12 [N-[(E)-3-phenyl-2-propenyl-2-piperidinyl] |  |  | 0.06 to 4 (≈ 0.183 to 12.2 µM) |
